For three compounds, melting point results are on record in patent publication US20020068759A1, “Medicament” (SmithKline Beecham plc, priority 1990, published 2002).

Counter-ions that a name gives are not always drawn.

For the compound `CCCCc1nc2cc(Br)cc(C(=O)O)c2n1Cc1ccccc1Cl` [Example 4, 5-Bromo-2-n-butyl-1-(2-chlorophenyl)methyl-1H-benzimidazole-7-carboxylic Acid], the melting point (commonly the temperature, or range, at which the solid turns liquid) is 254 to 255 °C.
With `CCCSc1ncc(C[C@H](NC(=O)CCC)C(=O)O)n1Cc1ccccc1Cl` [Example 1, 3-[(2-Chlorophenyl)methyl]-2-propylthio-N-butyrylhistidine] the figure was 178 to 181 °C; with `CCCCc1ncc(CC(Cc2ccccc2)C(=O)O)n1Cc1ccccc1Cl` (stereo not drawn) (as salt: hydrochloride) [Example 2, 3-[2-n-Butyl-1-{(2-chlorophenyl)methyl}-1H-imidazol-5-yl]-2-benzylpropanoic Acid], 118 to 120 °C.
